# Measured values reported in ChEMBL document CHEMBL3124910, “Discovery and structure-activity relationships study of novel thieno[2,3-b]pyridine analogues as hepatitis C virus inhibitors” (Bioorg Med Chem Lett, 2014).
# Legend:
# [1] = Cytotoxicity against human HuH7 cells after 72 hrs by MTT assay; type: cell-based, Huh-7
# [2] = test system: Hepatitis C virus; assay: Antiviral activity against HCV genotype 1b infected in human HuH7 cells assessed as inhibition of viral RNA replication after 72 hrs by luciferase reporter gene assay; type: functional, organism-based, Hepacivirus hominis; settings: Huh-7, 72 h
# [3] = Cytotoxicity against human LO2 cells after 72 hrs by MTT assay; type: cell-based, L02
# [4] = Cytotoxicity against human HEK293 cells after 72 hrs by MTT assay; type: cell-based
# [5] = target: T1, Inhibitor of nuclear factor kappa-B kinase subunit alpha (Homo sapiens) (UniProt O15111); assay: Inhibition of human IKKalpha at 10 uM after 40 mins by scintillation counting analysis in presence of [gamma-33P]ATP
# T1 sequence (whole entry): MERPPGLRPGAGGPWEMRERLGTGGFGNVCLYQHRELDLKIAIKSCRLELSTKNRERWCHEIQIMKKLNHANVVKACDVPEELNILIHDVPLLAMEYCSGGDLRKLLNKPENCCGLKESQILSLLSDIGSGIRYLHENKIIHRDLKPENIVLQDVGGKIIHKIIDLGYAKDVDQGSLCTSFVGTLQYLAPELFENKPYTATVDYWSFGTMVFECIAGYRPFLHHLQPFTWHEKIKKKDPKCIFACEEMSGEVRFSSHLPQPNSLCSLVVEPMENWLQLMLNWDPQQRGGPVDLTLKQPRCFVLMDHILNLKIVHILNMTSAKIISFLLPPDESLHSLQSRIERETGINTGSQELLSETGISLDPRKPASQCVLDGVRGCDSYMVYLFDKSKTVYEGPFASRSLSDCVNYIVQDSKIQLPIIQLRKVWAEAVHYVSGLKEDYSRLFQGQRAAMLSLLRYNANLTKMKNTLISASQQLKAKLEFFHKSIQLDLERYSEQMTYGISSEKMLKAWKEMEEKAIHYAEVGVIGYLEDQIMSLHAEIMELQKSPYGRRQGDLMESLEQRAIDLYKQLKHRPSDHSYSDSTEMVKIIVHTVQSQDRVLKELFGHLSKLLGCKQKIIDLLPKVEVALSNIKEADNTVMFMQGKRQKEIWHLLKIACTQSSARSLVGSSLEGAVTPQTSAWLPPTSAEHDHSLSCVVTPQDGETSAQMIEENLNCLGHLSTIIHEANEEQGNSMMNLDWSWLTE
# [6] = target: T2, Inhibitor of nuclear factor kappa-B kinase subunit beta (Homo sapiens) (UniProt O14920); assay: Inhibition of human IKKbeta at 10 uM after 40 mins by scintillation counting analysis in presence of [gamma-33P]ATP
# T2 sequence (whole entry): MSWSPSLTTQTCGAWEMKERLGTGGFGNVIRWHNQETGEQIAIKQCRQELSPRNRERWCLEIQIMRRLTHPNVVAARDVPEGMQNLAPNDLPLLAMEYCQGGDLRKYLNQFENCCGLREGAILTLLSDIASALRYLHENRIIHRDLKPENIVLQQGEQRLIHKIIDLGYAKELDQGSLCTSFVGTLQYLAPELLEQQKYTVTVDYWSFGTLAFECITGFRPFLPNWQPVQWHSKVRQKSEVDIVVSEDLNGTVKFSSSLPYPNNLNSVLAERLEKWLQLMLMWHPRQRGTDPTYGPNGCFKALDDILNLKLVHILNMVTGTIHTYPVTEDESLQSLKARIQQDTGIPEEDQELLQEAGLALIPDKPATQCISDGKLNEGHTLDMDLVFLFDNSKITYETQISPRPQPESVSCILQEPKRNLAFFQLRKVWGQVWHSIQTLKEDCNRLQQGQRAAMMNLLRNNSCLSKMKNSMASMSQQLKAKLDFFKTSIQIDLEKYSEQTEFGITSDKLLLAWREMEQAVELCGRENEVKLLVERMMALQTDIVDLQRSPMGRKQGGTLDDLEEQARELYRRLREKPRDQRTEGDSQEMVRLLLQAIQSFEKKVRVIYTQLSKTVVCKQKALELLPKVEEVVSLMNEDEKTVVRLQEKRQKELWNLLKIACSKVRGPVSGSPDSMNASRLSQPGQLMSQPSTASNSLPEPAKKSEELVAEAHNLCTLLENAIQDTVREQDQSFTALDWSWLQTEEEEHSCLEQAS
# [7] = Selectivity index, ratio of CC50 for human HuH7 cells to EC50 for HCV genotype 1b infected in human HuH7 cells; parameters: species or system Huh-7
# [8] = test system: Hepatitis C virus; assay: Antiviral activity against HCV genotype 1b infected in human HuH7 cells assessed as inhibition of viral RNA replication at 20 uM after 72 hrs by luciferase reporter gene assay; type: functional, Hepacivirus hominis; settings: Huh-7, 72 h
SMILES,CC50 at 72 h [1],EC50 [2],also measured
COc1ccccc1-c1ccc2c(N)c(C(N)=O)sc2n1,> 20 µM,> 20 µM,
COc1ccc(-c2ccc3c(N)c(C(N)=O)sc3n2)cc1,< 0.4 µM,> 20 µM,
CCOC(=O)c1sc2nc(C3CC3)cc(C(F)(F)F)c2c1N,> 20 µM,6.8 µM,
CN(C)C(=O)c1sc2nc(-c3ccccc3)cc(C(F)(F)F)c2c1N,> 20 µM,8.2 µM,
COc1ccc(-c2cc(C(F)(F)F)c3c(N)c(C(=O)N4CCOCC4)sc3n2)cc1,> 20 µM,10.3 µM,
Nc1c(C(=O)N2CCOCC2)sc2nc(-c3ccccc3F)cc(C(F)(F)F)c12,> 20 µM,17.6 µM,
Nc1c(C(=O)N2CCCCC2)sc2nc(-c3ccccc3)cc(C(F)(F)F)c12,> 20 µM,5.9 µM,
Nc1c(C(=O)NC2CCCC2)sc2nc(-c3ccccc3)cc(C(F)(F)F)c12,> 20 µM,5.5 µM,
Nc1c(C(=O)N2CCOCC2)sc2nc(C3CC3)cc(C(F)(F)F)c12,> 20 µM,9.7 µM,
CCOC(=O)c1oc2nc(-c3cccs3)cc(C(F)(F)F)c2c1N,> 20 µM,18.5 µM,
Nc1c(C(=O)N2CCOCC2)sc2nc(-c3cnccn3)cc(C(F)(F)F)c12,> 20 µM,> 20 µM,
Nc1c(C(=O)NCc2cccs2)oc2nc(-c3ccccc3)cc(C(F)(F)F)c12,> 20 µM,9.8 µM,
COc1ccc(-c2cc(C(F)(F)F)c3c(N)c(C(N)=O)sc3n2)cc1,46.4 µM,4 µM,CC50 at 72 h [3]: 26.2 µM; CC50 at 72 h [4]: 24.7 µM; inhibition [5]: 7%; inhibition [6]: 6%; Ratio CC50/EC50 [7]: 11.6
CCOC(=O)c1sc2nc(-c3ccccc3)cc(C(F)(F)F)c2c1N,> 20 µM,19.3 µM,
CN1CCN(C(=O)c2sc3nc(-c4ccccc4)cc(C(F)(F)F)c3c2N)CC1,> 20 µM,11.4 µM,
Nc1c(C(=O)N2CCOCC2)sc2nc(-c3ccccc3)cc(C(F)(F)F)c12,> 100 µM,3.3 µM,CC50 at 72 h [3]: 94.4 µM; CC50 at 72 h [4]: 85.1 µM; Ratio CC50/EC50 [7]: >30.3
NC(=O)c1sc2nc(C3CC3)cc(C(F)(F)F)c2c1N,> 20 µM,12.2 µM,
O=C(c1cc2c(C(F)(F)F)cc(-c3ccccc3)nc2s1)N1CCOCC1,> 100 µM,4.5 µM,CC50 at 72 h [3]: > 100 µM; CC50 at 72 h [4]: 92.6 µM; Ratio CC50/EC50 [7]: >22.2
CCOC(=O)c1sc2nc(-c3cccs3)cc(C(F)(F)F)c2c1N,> 20 µM,10 µM,
Nc1c(C(=O)N2CCn3c(nnc3C(F)(F)F)C2)sc2nc(-c3ccccc3)cc(C(F)(F)F)c12,45.2 µM,3.3 µM,CC50 at 72 h [3]: 40.7 µM; CC50 at 72 h [4]: 28 µM; Ratio CC50/EC50 [7]: 13.7
COc1ccccc1-c1cc(C(F)(F)F)c2c(N)c(C(N)=O)sc2n1,> 20 µM,14.3 µM,
Nc1c(C(=O)N2CCOCC2)sc2nc(-c3ccc(Cl)c(Cl)c3)cc(C(F)(F)F)c12,> 20 µM,> 20 µM,
CC(C)(C)OC(=O)N1CCN(C(=O)c2sc3nc(-c4ccccc4)cc(C(F)(F)F)c3c2N)CC1,> 20 µM,> 20 µM,
Nc1c(C(=O)O)sc2nc(-c3ccccc3)cc(C(F)(F)F)c12,> 20 µM,> 20 µM,

SMILES,CC50 at 72 h [1],EC50 [2],also measured
Cc1cc(-c2ccccc2)nc2sc(C(=O)N3CCOCC3)c(N)c12,> 20 µM,5.8 µM,
Nc1c(C(=O)N2CCOCC2)sc2nc(-c3ccccc3)ccc12,> 20 µM,17.2 µM,
COc1cccc(-c2cc(C(F)(F)F)c3c(N)c(C(=O)N4CCOCC4)sc3n2)c1,> 20 µM,10.8 µM,
Nc1c(C(=O)N2CCOCC2)oc2nc(-c3ccccc3)cc(C(F)(F)F)c12,> 20 µM,11.2 µM,
Nc1c(C(=O)N2CCOCC2)sc2nc3c(c(C(F)(F)F)c12)CCc1ccccc1-3,> 100 µM,3.9 µM,CC50 at 72 h [3]: > 100 µM; CC50 at 72 h [4]: 72.7 µM; Ratio CC50/EC50 [7]: >25.6
CCN(CC)C(=O)c1sc2nc(-c3ccccc3)cc(C(F)(F)F)c2c1N,> 100 µM,3.5 µM,CC50 at 72 h [3]: > 100 µM; CC50 at 72 h [4]: > 100 µM; Ratio CC50/EC50 [7]: >28.6
Nc1c(C(=O)N2CCNCC2)sc2nc(-c3ccccc3)cc(C(F)(F)F)c12,> 20 µM,9.6 µM,
Nc1c(C(=O)NCc2ccccc2)sc2nc(-c3ccccc3)cc(C(F)(F)F)c12,> 20 µM,> 20 µM,
COc1cccc(-c2ccc3c(N)c(C(N)=O)sc3n2)c1,< 0.4 µM,> 20 µM,
Nc1c(C(=O)N2CCOCC2)sc2nc(-c3ccc(F)cc3)cc(C(F)(F)F)c12,> 20 µM,18.6 µM,
Nc1c(C(=O)N2CCOCC2)sc2nc(-c3cccc(F)c3)cc(C(F)(F)F)c12,> 20 µM,6.7 µM,
Nc1c(C(=O)N2CCSCC2)sc2nc(-c3ccccc3)cc(C(F)(F)F)c12,> 20 µM,7.2 µM,
Nc1c(C(=O)N2CCOCC2)sc2nc(-c3nccs3)cc(C(F)(F)F)c12,> 20 µM,8.9 µM,
Nc1c(C(=O)NCc2cccs2)sc2nc(-c3ccccc3)cc(C(F)(F)F)c12,> 20 µM,8.2 µM,
Nc1c(C(=O)N2CCOCC2)sc2nc(-c3cccs3)cc(C(F)(F)F)c12,> 20 µM,6.5 µM,
Nc1c(C(=O)N2CCOCC2)sc2nc(-c3ccco3)cc(C(F)(F)F)c12,> 20 µM,9.6 µM,
COc1ccccc1-c1cc(C(F)(F)F)c2c(N)c(C(=O)N3CCOCC3)sc2n1,> 20 µM,8.3 µM,
Nc1c(C(=O)N2CCc3sccc3C2)sc2nc(-c3ccccc3)cc(C(F)(F)F)c12,> 20 µM,12.5 µM,
CCOC(=O)c1sc2nc(-c3ccco3)cc(C(F)(F)F)c2c1N,> 20 µM,5.7 µM,
COc1cccc(-c2cc(C(F)(F)F)c3c(N)c(C(N)=O)sc3n2)c1,> 20 µM,,inhibition at 20 µM [8]: 45%
NC(=O)c1sc2nc(-c3ccccc3)cc(C(F)(F)F)c2c1N,> 20 µM,8.2 µM,
Nc1c(C(=O)N2CCC(=O)CC2)sc2nc(-c3ccccc3)cc(C(F)(F)F)c12,> 20 µM,> 20 µM,
CCOC(=O)c1oc2nc(-c3ccccc3)cc(C(F)(F)F)c2c1N,> 20 µM,6.8 µM,
